Data reported in ChEMBL document CHEMBL4421731, “Small molecules inhibiting oncoprotein Myc” (2016).
The source made the active and inactive calls. The calls are words filed in the database; no cut-off is given here.

How the values were obtained:
[1] = Toxicity in athymic nude mouse xenografted with human SK-MEL-103 cells assessed as induction of distress at 50 mg/kg, ip dosed daily for 14 days dosed via Captisol formulation and measured on day 16; assay type: organism-based; details: in vivo, 336 h
[2] = target: Myc proto-oncogene protein (Homo sapiens) (UniProt P01106); experiment: Inhibition of Myc in human melanoma cells assessed as increase in Myc-repressed p27kip1 gene expression; assay type: cell-based
Chain of Myc proto-oncogene protein (Homo sapiens) (P01106 whole entry): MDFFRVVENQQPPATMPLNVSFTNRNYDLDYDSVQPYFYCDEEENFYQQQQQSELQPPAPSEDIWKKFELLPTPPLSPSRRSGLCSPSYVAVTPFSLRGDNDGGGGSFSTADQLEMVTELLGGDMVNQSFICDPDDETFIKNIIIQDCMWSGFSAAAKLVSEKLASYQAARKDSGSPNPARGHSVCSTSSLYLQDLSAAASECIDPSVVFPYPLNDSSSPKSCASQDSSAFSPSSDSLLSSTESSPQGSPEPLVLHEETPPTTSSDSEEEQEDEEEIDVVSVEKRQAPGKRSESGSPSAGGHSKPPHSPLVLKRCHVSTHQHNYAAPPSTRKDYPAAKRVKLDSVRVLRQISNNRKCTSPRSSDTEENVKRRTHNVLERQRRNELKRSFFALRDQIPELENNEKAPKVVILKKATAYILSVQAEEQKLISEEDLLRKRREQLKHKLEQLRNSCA

[3] = target: Myc proto-oncogene protein (Homo sapiens) (UniProt P01106); experiment: Inhibition of Myc in human melanoma cells assessed as reduction in Myc-transactivated thymidylate synthase gene expression; assay type: cell-based
Melanoma cell line = experiment: Antitumor activity against human melanoma cells xenografted in mouse assessed as inhibition of tumor growth measured up to 8 days; assay type: functional, cell-based
[4] = Toxicity in mouse xenografted with human melanoma cells measured up to 8 days; details: 192 h
SK-MEL-103 [5] = experiment: Antitumor activity against human SK-MEL-103 cells xenografted in athymic nude mouse assessed as inhibition of tumor growth at 50 mg/kg, ip dosed daily; assay type: functional, organism-based
SK-MEL-103 [6] = experiment: Antitumor activity against human SK-MEL-103 cells xenografted in athymic nude mouse assessed as improvement in mouse survival at 50 mg/kg, ip dosed daily for 14 days dosed via Captisol formulation; assay type: functional, organism-based
[7] = Toxicity in athymic nude mouse xenografted with human SK-MEL-103 cells assessed as induction of weight loss at 50 mg/kg, ip dosed daily for 14 days dosed via Captisol formulation; assay type: organism-based; details: in vivo, 336 h
[8] = Toxicity in athymic nude mouse xenografted with human SK-MEL-103 cells assessed as induction of sickness at 50 mg/kg, ip dosed daily for 14 days dosed via Captisol formulation and measured on day 16; assay type: organism-based; details: in vivo, 336 h
SK-MEL-103 [9] = experiment: Antitumor activity against human SK-MEL-103 cells xenografted in athymic nude mouse assessed as improvement in mouse survival at 50 mg/kg, ip dosed daily for 4 days dosed via Captisol formulation; assay type: functional, organism-based
SK-MEL-103 [10] = experiment: Antitumor activity against human SK-MEL-103 cells xenografted in athymic nude mouse assessed as initial tumor level at 50 mg/kg, ip dosed daily for 14 days dosed via Captisol formulation (reference value: 80%); assay type: functional
[11] = target: Myc proto-oncogene protein (Homo sapiens) (UniProt P01106); experiment: Inhibition of C-Myc in human SK-MEL-103 cells assessed as reduction in MYC-dependent transcriptional activation incubated for 48 hrs by microarray relative to control; assay type: cell-based
[12] = Intrinsic clearance in mouse liver microsomes at 1 uM in presence of NADPH by LC-MS/MS analysis; assay type: ADME, Microsome
[13] = Intrinsic clearance in human liver microsomes at 1 uM in presence of NADPH by LC-MS/MS analysis; assay type: ADME, Microsome
[14] = target: Myc proto-oncogene protein (Homo sapiens) (UniProt P01106); experiment: Inhibition of C-Myc (unknown origin) expressed in rat HO15.19 cells assessed as accumulation at G0/G1 phase at 3 uM by flow cytometry (reference value: 35.43%); assay type: cell-based; set-up: scale not given: the % may be the effect or the level left
HO15.19 = experiment: Induction of cell cycle arrest in rat HO15.19 cells assessed as accumulation at G0/G1 phase at 3 uM by flow cytometry (reference value: 50.76%); assay type: cell-based; details: ho15.19, 3 µM
[15] = target: Myc proto-oncogene protein (Homo sapiens) (UniProt P01106); experiment: Inhibition of C-Myc in human melanoma (#9) cells assessed as reduction in serine levels by [13C]-glucose labeling based assay; assay type: cell-based
[16] = target: Myc proto-oncogene protein (Homo sapiens) (UniProt P01106); experiment: Inhibition of C-Myc in human melanoma (#9) cells assessed as reduction in pyruvate levels by [13C]-glucose labeling based assay; assay type: cell-based
[17] = target: Myc proto-oncogene protein (Homo sapiens) (UniProt P01106); experiment: Inhibition of C-Myc in human melanoma (#9) cells assessed as reduction in lactate levels by [13C]-glucose labeling based assay; assay type: cell-based
[18] = target: Myc proto-oncogene protein (Homo sapiens) (UniProt P01106); experiment: Inhibition of C-Myc in human melanoma (#9) cells assessed as reduction in fumarate levels by [13C]-glucose labeling based assay; assay type: cell-based
[19] = Toxicity in athymic nude mouse xenografted with human SK-MEL-103 cells assessed as induction of weight loss at 50 mg/kg, ip dosed daily for 1 days dosed via Captisol formulation (reference value: 100 +/- 10%%); assay type: organism-based; details: in vivo, 24 h
[20] = Toxicity in athymic nude mouse xenografted with human SK-MEL-103 cells assessed as induction of weight loss at 50 mg/kg, ip dosed daily for 3 days dosed via Captisol formulation (reference value: 100 +/- 10%%); assay type: organism-based; details: in vivo, 72 h
[21] = Toxicity in athymic nude mouse xenografted with human SK-MEL-103 cells assessed as induction of weight loss at 50 mg/kg, ip dosed daily for 5 days dosed via Captisol formulation (reference value: 100 +/- 10%%); assay type: organism-based; details: in vivo, 120 h
[22] = Toxicity in athymic nude mouse xenografted with human SK-MEL-103 cells assessed as induction of weight loss at 50 mg/kg, ip dosed daily for 10 days dosed via Captisol formulation (reference value: 100 +/- 10%%); assay type: organism-based; details: in vivo, 240 h
[23] = Toxicity in athymic nude mouse xenografted with human SK-MEL-103 cells assessed as induction of weight loss at 50 mg/kg, ip dosed daily for 12 days dosed via Captisol formulation (reference value: 100 +/- 10%%); assay type: organism-based; details: in vivo, 288 h
[24] = Toxicity in athymic nude mouse xenografted with human SK-MEL-103 cells assessed as induction of weight loss at 50 mg/kg, ip dosed daily for 14 days dosed via Captisol formulation (reference value: 100 +/- 10%%); assay type: organism-based; details: in vivo, 336 h

Compound: CCN(CC)c1ccc(/C=N/NC(=O)Cn2nnc(-c3ccccc3)n2)c(O)c1
- Activity [1]: Non-Toxic
- inhibition [2]: Active
- inhibition [3]: Active
- TGI (Melanoma cell line): Active
- Activity [4]: Non-Toxic
- TGI (SK-MEL-103 [5]): Active
- Activity (SK-MEL-103 [6]): Active
- Activity [7]: Non-Toxic
- Activity [8]: Non-Toxic
- TGI (SK-MEL-103 [9]): inactive
- Activity (SK-MEL-103 [10]): <50%
- inhibition [11]: Active
- intrinsic clearance [12]: 270 µL/min/mg
- intrinsic clearance [13]: 110 µL/min/mg
- Activity [14]: 49.7%
- Activity (HO15.19): 54.9%
- inhibition [15]: Active
- inhibition [16]: Active
- inhibition [17]: Active
- inhibition [18]: Active
- Activity [19]: 100%
- Activity [20]: 103.3%
- Activity [21]: 103.8%
- Activity [22]: 111.4%
- Activity [23]: 113.3%
- Activity [24]: 114.5%
